# “And” between values parts separate entries of the source, which are not always exact repeats. Identical values can stand only once. Like-named read-outs stand apart in the source and are kept apart here.
# Key:
# HT-29 cells = test: Cytosensor Microphysiometer acidification rates; format: cell-based, human; conditions: 4 hours pretreatment, TER199 20 µM, ethacrynic acid 50 µM
# Protocol: The metabolic effects related to toxicity of the compounds of the invention on HT-29 cells, were tested using a Cytosensor Microphysiometer made by Molecular Devices, Inc., Menlo Park, CA and described in McConnell, H.M. et al. Science (1992) 257:1906-1912 and by Wada, H.G. et al. AATEX (1992) 1:154-164. Changes in pH of the culture medium are measured as a function of cellular metabolism. Acidification rates of the small volume of liquid flowing over the cells correlate with the number of live cells in the reaction chamber; a reduction of acidification rate reflects reduced numbers of surviving cells. […] The medium was then replaced with serum-free low buffer capacity medium and Microphysiometer analysis was initiated.
# bone marrow GM-CFU [1] = conditions: TER199 90 mg/kg i.p. 1 hour prior to melphalan 10 mg/kg i.p.
# [2] = test system: HT-29 (human colon adenocarcinoma) cells; test: modified clonogenic assay, potentiation of chlorambucil cytotoxicity; format: cell-based; conditions: chlorambucil, mean ±S.D. of 2-3 experiments; for DMF (dose modification factor), Diethyl ester: HT-29, dose tested 12.5 µM
# Protocol: HT-29 (human colon adenocarcinoma) cells were obtained from Dr. Roberto Ceriani (Cancer Research Fund of Contra Costa County, Walnut Creek, CA) and were used in log phase of growth unless otherwise specified. Chlorambucil (CMB) was obtained from Sigma (St. Louis, MO) and was dissolved in 100% ethanol. All GST inhibitors were dissolved in ethanol, DMSO, or water just prior to use. The same amount of solvent added to culture medium served as the vehicle control.
# In a modified clonogenic assay for cytotoxicity, cells were suspended at 2 x 10^5 cells/ml in serum-free medium in the presence of vehicle or inhibitor. […] Cells were incubated for 2 hours, then varying doses of CMB were added. At the end of a second 2-hour incubation, cells were diluted to 7.5-10 x 10^3/ml in serum-containing medium and plated in quadruplicate at 200 µl/well in Microtest III microtiter plates.
# Plates were incubated for 6 days and assayed by a modified methylene blue method. Briefly, cells were fixed with 1.25% glutaraldehyde in PBS then stained with 0.05% methylene blue in distilled water. Plates were washed several times in distilled water to remove unretained dye and retained dye was resolubilized in 0.03 N HCl. Plates were read at 650 nm in a Molecular Devices Vmax plate reader (Molecular Devices, Redwood City, CA). […] A dose modification factor (DMF), a measure of potentiation of cytotoxicity, was calculated for each inhibitor by dividing the IC50 value of CMB without inhibitor treatment by the IC50 value for CMB with inhibitor treatment.
# [3] = test system: normal human bone marrow erythroid (BFU-E) progenitor cells; test: colony formation, human bone marrow BFU-E; format: cell-based
# Protocol: (§1) The effects are dose-dependent, usually in the range of 1.0 to 10.0 µM, and in most cases for cells stimulated by GM-CSF, G-CSF, M-CSF, Flt3/Flk-2 and Steel factor (stem cell factor/c-kit ligand). Of particular interest was the finding that TER199 enhances colony formation stimulated by combinations of cytokines. Additionally, the enhancing effect is more pronounced in human than in murine bone marrow.
# [4] = test system: normal human bone marrow multipotential (CFU-GEMM) progenitor cells; test: colony formation, human bone marrow CFU-GEMM; format: cell-based; conditions: EPO + 50 ng/ml SLF
# Protocol: as §1
# bone marrow GM-CFU [5] = test: 5-fluorouracil-induced GM-CFU suppression in mice; conditions: for GM-CFU: harvest 48 hours after 5-FU
# Protocol: The control group was not treated with either drug. Bone marrows were harvested and GM-CFUs were determined 24 hours after the final injection.
# Values are the mean ± SE of three mice per point.
# peripheral blood cells [6] = test: peripheral blood response to 5-FU with i.p. TER199 in rats; format: in vivo, Sprague-Dawley derived rats; conditions: 5-FU 150 mg/kg i.p. day one
# Protocol: Sprague-Dawley derived rats were treated according to the schedule below (Table 11).
# bone marrow GM-CFU [7] = test: stimulation of bone marrow GM-CFU after administration to mice; format: in vivo, B6D2F1 mice; conditions: for most effective dose on bone marrow GM-CFU (Figure 4a): single treatment, harvest 24 hours
# Protocol: In an illustrative assay three B6D2F1 mice were treated with various doses of benzyl PG intraperitoneally.
# Mice in the control group were injected with water or saline. Bone marrow cells were harvested 24 hours after drug treatment and added to alpha minimum essential medium (alpha MEM) supplemented with methylcellulose (0.8% w/v), fetal bovine serum (20% v/v), deionized BSA (1% w/v), Pokeweed mitogen-stimulated spleen-cell conditioned medium (PWM-SCCM)^1 (10% v/v) and gentamycin (50 Tg/ml). One ml aliquots were plated (four replicate plates) and incubated for seven days at 37 °C. […] Spleens were removed aseptically from four male B6D2F1 mice enforced through a 200 Tm wire mesh screen to obtain a single cell suspension. Ten ml of the suspension (2-4 X 10^7 cell/ml was added to 90 ml alpha-MEM supplemented with 1% deionized BSA, 50 Tg/ml gentamicin, 0.3% freshly reconstituted pokeweed antigen, 10 µM 2-mercaptoethanol. The mixture was incubated for 5 days at […] in a 5% CO2 atmosphere and the result-ing conditioned medium was centrifuged at 800g for ten minutes and filtered through a 0.22 Tm filter. Aliquots were kept frozen at […] until use.
# Bone marrow was harvested 24 hours after administering the compounds and GM-CFU levels measured as described above.
# peripheral blood cells [8] = test: effect on peripheral blood counts in rats; conditions: 90 mg/kg/day x 5, i.p.
# Source text: Rats were divided into two groups and each group was bled on alternating days. Mean total leukocyte, absolute lymphocyte and absolute neutrophil counts increased over the study period.
# [9] = in vitro half-life / metabolism in mouse blood; format: in vitro ADME
# [10] = EPO + 50 ng/ml SLF, TER199 1.0 µM
# [11] = EPO + 50 ng/ml SLF, TER199 10 µM
# [12] = TER199 60 mg/kg b.i.d. or 120 mg/kg q.d. i.p. day 2-10
smiles,measurement,setting,value
"CCOC(=O)[C@@H](N)CCC(=O)N[C@@H](CSCc1ccccc1)C(=O)N[C@@H](C(=O)OCC)c1ccccc1 [TER199, γE ethyl ester-C(Bz)-R-(-)-ϕG ethyl ester]","effect on acidification rates, compound alone (Figure 2)",HT-29 cells; no chlorambucil,Neither γE-C(Bz)-ϕG diethylester (TER199) nor ethacrynic acid alone had any appreciable effect
same,effect of pretreatment on acidification rates with chlorambucil (Figure 2),HT-29 cells; then 100 µM chlorambucil,potentiated the effect of chlorambucil
same,GM-CFU,bone marrow GM-CFU [1],8 % of control value
same,"DMF (dose modification factor), Diethyl ester",[2],1.65
same,"DMF (dose modification factor), Diethyl ester",[2]; listed as γE-C(Bz)-ϕG diethyl ester,1.65 ± 0.04
same,DMF of DEE,[2]; diethyl ester,1.651
same,Colony number,"[3]; EPO 1 U/ml, TER199 0.1 µM",35±3 and 38±3
same,Colony number,"[3]; EPO 1 U/ml, TER199 1.0 µM",60±2 and 58±1
same,Colony number,"[3]; EPO 1 U/ml, TER199 10 µM",57±4 and 59±2
same,Colony number,"[3]; EPO + 50 ng/ml SLF, TER199 0.1 µM",92±4 and 80±5
same,% change from control,[3]; [10],22% and 35%
same,Colony number,[3]; [10],107±7 and 80±3
same,% change from control,[3]; [11],24% and 29%
same,Colony number,[3]; [11],109±2 and 85±3
same,Colony number,[4]; TER199 0.1 µM,12±1 and 19±2
same,Colony number,[4]; TER199 1.0 µM,17±2 and 23±2
same,% change from control,[4]; TER199 10 µM,60% and 36%
same,Colony number,[4]; TER199 10 µM,16±1 and 30±1
same,GM-CFU counts per femur,bone marrow GM-CFU [5]; 60 mg/kg TER199 IP 24 hours after 75 mg/kg 5-FU IP,greater than control values
same,number of GM-CFUs per femur compared with fluorouracil alone,bone marrow GM-CFU [5]; 60 mg/kg TER199 IP simultaneously with 75 mg/kg 5-FU IP,fourfold increase
same,GM-CFU,bone marrow GM-CFU [5]; TER199 150 mg/kg p.o. 24 hours after 5-FU 75 mg/kg i.p.,90 % of control
same,GM-CFU,bone marrow GM-CFU [5]; TER199 150 mg/kg p.o. 24 hours after 5-FU 150 mg/kg i.p.,71 % of control
same,GM-CFU by day 4 after 5-FU administration (Figure 9b),bone marrow GM-CFU [5]; TER199 IP 24 hours after 5-FU,about twice that of control
same,effect on GM-CFU (Figure 9c),bone marrow GM-CFU [5]; TER199 i.p. 24 hours prior to 5-FU,essentially no effect
same,platelet levels (Figure 14),peripheral blood cells [6]; [12],recovered to normal levels by study Day 12
same,"white blood cell, neutrophil, and lymphocyte levels (Figure 14)",peripheral blood cells [6]; [12],reached pretest levels sooner than the 5-FU-treated group
same,red blood cell counts (Figure 14),"peripheral blood cells [6]; TER199 i.p. day 2-10, compared to 5-FU control animals",observed decrease is reduced
same,GM-CFU,"bone marrow GM-CFU [7]; 90 mg/kg intraperitoneally, marrow harvested 24 hours later, controls about 140",approximately 275 colonies/10^4 nucleated cells
same,most effective dose on bone marrow GM-CFU (Figure 4a),bone marrow GM-CFU [7]; IP administration,60 to 90 mg/kg
same,"effect on GM-CFU as a function of dosage, ester/amide forms (Figure 7)",bone marrow GM-CFU [7]; bone marrow harvested 24 hours after administering,significantly more effective than the mixed ester amide (TER300)
same,most effective dose on bone marrow GM-CFU (Figure 4a),bone marrow GM-CFU [7]; oral administration,120 to 180 mg/kg
same,time of maximum stimulation of GM-CFU (Figure 5),bone marrow GM-CFU [7]; single 60 mg/kg dose IP on day 0,day 2 and day 5
same,deleterious effects on the animals,peripheral blood cells [8],did not appear to have any deleterious effects
same,levels of circulating white blood cells,peripheral blood cells [8],twofold increase
same,red blood cell or platelet counts,peripheral blood cells [8]; exception: mean decrease in platelet count on day 9,no significant change
same,half-life,[9],< 1 min
